Measured values as given in paper PMC9569468 (International Journal of Molecular Sciences, 2022).
Read-outs that look alike come from different tables or passages of the source.

Experiments:
[1] = system: SARS-CoV-2; settings: read-out: IC50 of FDA-approved drugs applied in COVID-19 treatment protocols; cited from earlier work
[2] = system: SARS-CoV-2 "NRC-03-nhCoV"; assay: microbe, parasite or virus in culture; type: cell-based
[3] = in vitro; settings: African green monkey
[4] = system: MERS-CoV "NRCE-HKU270"; assay: microbe, parasite or virus in culture; type: cell-based; settings: for IC50: Middle East respiratory syndrome-related coronavirus, Vero C1008, read-out: Antiviral Activities MERS-CoV IC50 (µM)
[5] = system: NRC-03-nhCoV in Vero-E6 cells; assay: microbe, parasite or virus in culture; type: cell-based, SARS-CoV-2; settings: Severe acute respiratory syndrome coronavirus 2, Vero C1008, read-out: Half maximal inhibitory concentration (IC50) against NRC-03-nhCoV
[6] = Severe acute respiratory syndrome coronavirus 2, Vero C1008, read-out: Antiviral Activities SARS-CoV-2 IC50 (µM)
[7] = read-out: Antiviral Activities SARS-CoV-2 IC50

For `CC[C@H]1OC(=O)[C@H](C)[C@@H](O[C@H]2C[C@@](C)(OC)[C@@H](O)[C@H](C)O2)[C@H](C)[C@@H](O[C@@H]2O[C@H](C)C[C@H](N(C)C)[C@H]2O)[C@](C)(O)C[C@@H](C)CN(C)[C@H](C)[C@@H](O)[C@]1(C)O` [Azithromycin], the IC50 [1] is listed as 2.12 µM.

With `O=C1Nc2ccccc2[C@]12C[C@@H](S(=O)(=O)c1ccccc1)[C@H]1CCCN12` [Compound 4a, (1’R,3R,7a’R)-1’-(Phenylsulfonyl)-1’,2’,5’,6’,7’,7a’-hexahydrospiro[indoline-3,3’-pyrrolizin]-2-one] the “Antiviral Activities SARS-CoV-2 SI (selectivity index)” value [2] was 11.24, the IC50 [2, 6] was 29 µM and the CC50 ([3]; Cytotoxicity (CC50, µM)) was 326 µM. The “Antiviral Activities MERS-CoV SI (selectivity index)” value [4] was 5.25, the IC50 [4] was 62 µM and the melting point was 298 °C.

In the case of `O=C1Nc2ccc(Cl)cc2[C@]12C[C@@H](S(=O)(=O)c1ccccc1)[C@H]1CSCN12` [Compound 4b, (3R,7’R,7a’R)-5-Chloro-7’-(phenylsulfonyl)-1’,6’,7’,7a’-tetrahydro-3’H-spiro[indoline-3,5’-pyrrolo [1,2-c]thiazole]-2-one], the “Antiviral Activities SARS-CoV-2 SI (selectivity index)” value [2] is reported as 5.38, the IC50 [2, 6] is reported as 194 µM and the CC50 ([3]; Cytotoxicity (CC50, µM)) is reported as 1040 µM. For the same compound, the “Antiviral Activities MERS-CoV SI (selectivity index)” value [4] was 9.95, the IC50 [4] was 105 µM and the melting point was 282 °C.

Work on `O=C1Nc2ccc([N+](=O)[O-])cc2[C@]12C[C@@H](S(=O)(=O)c1ccccc1)[C@H]1C[C@H](O)CN12` [Compound 4c, (1’R,3R,6’S,7a’R)-6’-Hydroxy-5-nitro-1’-(phenylsulfonyl)-1’,2’,5’,6’,7’,7a’-hexahydrospiro[indoline-3,3’-pyrrolizin]-2-one] yielded an IC50 [2, 6] of 17 µM, an IC50 [2, 7] of 18 µM and an IC50 [5] of 8.79 µM. For the same compound, the CC50 ([3]; Cytotoxicity (CC50, µM)) was 1100 µM, the “Antiviral Activities MERS-CoV SI (selectivity index)” value [4] was 16.84 and the IC50 [4] was 65 µM.

With `O=C1Nc2ccc(Br)cc2[C@]12C[C@@H](S(=O)(=O)c1ccccc1)[C@H]1C[C@H](O)CN12` [Compound 4d, (1’R,3R,6’S,7a’R)-5-Bromo-6’-hydroxy-1’-(phenylsulfonyl)-1’,2’,5’,6’,7’,7a’-hexahydrospiro[indoline-3,3’-pyrrolizin]-2-one] the “Antiviral Activities SARS-CoV-2 SI (selectivity index)” value [2] was 8.58, the IC50 [2, 6] was 24 µM and the CC50 ([3]; Cytotoxicity (CC50, µM)) was 206 µM. For the same compound, the “Antiviral Activities MERS-CoV SI (selectivity index)” value [4] was 8.95, the IC50 [4] was 23 µM and the melting point was 220 °C.

For `O=C1Nc2ccc([N+](=O)[O-])cc2[C@]12C[C@@H](S(=O)(=O)c1ccccc1)[C@H]1CSCN12` [Compound 4e, (3R,7’R,7a’R)-5-Nitro-7’-(phenylsulfonyl)-1’,6’,7’,7a’-tetrahydro-3’H-spiro[indoline-3,5’-pyrrolo [1,2-c]thiazole]-2-one], the “Antiviral Activities SARS-CoV-2 SI (selectivity index)” value [2] was 17, the IC50 [2, 6] was 18 µM and the IC50 [2, 7] was 17 µM. For the same compound, the CC50 ([3]; Cytotoxicity (CC50, µM)) was 289 µM, the “Antiviral Activities MERS-CoV SI (selectivity index)” value [4] was 3.90 and the IC50 [4] was 74 µM. For the same compound, the melting point was 95 °C.

For `COc1ccc2c(c1)[C@]1(C[C@@H](S(=O)(=O)c3ccccc3)[C@H]3CSCN31)C(=O)N2` [Compound 4f, (3R,7’R,7a’R)-5-Methoxy-7’-(phenylsulfonyl)-1’,6’,7’,7a’-tetrahydro-3’H-spiro[indoline-3,5’-pyrrolo [1,2-c]thiazole]-2-one], the “Antiviral Activities SARS-CoV-2 SI (selectivity index)” value [2] was <1, the IC50 [2, 6] was 2250 µM and the CC50 ([3]; Cytotoxicity (CC50, µM)) was 345 µM. The “Antiviral Activities MERS-CoV SI (selectivity index)” value [4] was 3.92, the IC50 [4] was 88 µM and the melting point was 105 °C.

With `O=C1Nc2ccc(Cl)cc2[C@]12C[C@@H](S(=O)(=O)c1ccccc1)[C@H]1CCCN12` [Compound 4g, (1’R,3R,7a’R)-5-Chloro-1’-(phenylsulfonyl)-1’,2’,5’,6’,7’,7a’-hexahydrospiro[indoline-3,3’-pyrrolizin]-2-one] the “Antiviral Activities SARS-CoV-2 SI (selectivity index)” value [2] was 1, the IC50 [2, 6] was 405 µM and the CC50 ([3]; Cytotoxicity (CC50, µM)) was 405 µM. The “Antiviral Activities MERS-CoV SI (selectivity index)” value [4] was 3.97, the IC50 [4] was 101 µM and the melting point was 254 °C.

With `COc1ccc2c(c1)[C@]1(C[C@@H](S(=O)(=O)c3ccccc3)[C@H]3CCCN31)C(=O)N2` [Compound 4h, (1’R,3R,7a’R)-5-Methoxy-1’-(phenylsulfonyl)-1’,2’,5’,6’,7’,7a’-hexahydrospiro[indoline-3,3’-pyrrolizin]-2-one] the “Antiviral Activities SARS-CoV-2 SI (selectivity index)” value [2] was 15.43, the IC50 [2, 6] was 37 µM and the CC50 ([3]; Cytotoxicity (CC50, µM)) was 571 µM. For the same compound, the “Antiviral Activities MERS-CoV SI (selectivity index)” value [4] was 38.06, the IC50 [4] was 15 µM and the melting point was 240 °C.

`O=C1Nc2ccccc2[C@]12C[C@@H](S(=O)(=O)c1ccccc1)[C@H]1CSCN12` [Compound 4i, (3R,7’R,7a’R)-7’-(Phenylsulfonyl)-1’,6’,7’,7a’-tetrahydro-3’H-spiro[indoline-3,5’-pyrrolo [1,2-c]thiazole]-2-one] showed an IC50 [2, 6] of 34 µM, an IC50 [5] of 14.7 µM and a CC50 ([3]; Cytotoxicity (CC50, µM)) of 1990 µM. For the same compound, the IC50 [4] was 11 µM.

With `O=C1Nc2ccc(Br)cc2[C@]12C[C@@H](S(=O)(=O)c1ccccc1)[C@H]1CCCN12` [Compound 4j, (1’R,3R,7a’R)-5-Bromo-1’-(phenylsulfonyl)-1’,2’,5’,6’,7’,7a’-hexahydrospiro[indoline-3,3’-pyrrolizin]-2-one] the “Antiviral Activities SARS-CoV-2 SI (selectivity index)” value [2] was 1.01, the IC50 [2, 6] was 197 µM and the CC50 ([3]; Cytotoxicity (CC50, µM)) was 200 µM. The “Antiviral Activities MERS-CoV SI (selectivity index)” value [4] was <1, the IC50 [4] was 376 µM and the melting point was 250 °C.

For `CN1C(=O)[C@@]2(C[C@@H](S(=O)(=O)c3ccccc3)[C@H]3CCCN32)c2ccccc21` [Compound 4k, (1’R,3R,7a’R)-1-Methyl-1’-(phenylsulfonyl)-1’,2’,5’,6’,7’,7a’-hexahydrospiro[indoline-3,3’-pyrrolizin]-2-one], the IC50 [2, 6] was 27 µM, the IC50 [5] was 5.98 µM and the CC50 ([3]; Cytotoxicity (CC50, µM)) was 883 µM. The CC50 ([3]; Half maximal cytotoxic concentration (CC50)) was 882 µM, the “Antiviral Activities MERS-CoV SI (selectivity index)” value [4] was 13.37 and the IC50 [4] was 66 µM.

With `O=C1N(CCBr)c2ccccc2[C@]12C[C@@H](S(=O)(=O)c1ccccc1)[C@H]1CCCN12` [Compound 4l, (1’R,3R,7a’R)-1-(2-Bromoethyl)-1’-(phenylsulfonyl)-1’,2’,5’,6’,7’,7a’-hexahydrospiro[indoline-3,3’-pyrrolizin]-2-one] the “Antiviral Activities SARS-CoV-2 SI (selectivity index)” value [2] was 1.92, the IC50 [2, 6] was 107 µM and the CC50 ([3]; Cytotoxicity (CC50, µM)) was 206 µM. For the same compound, the “Antiviral Activities MERS-CoV SI (selectivity index)” value [4] was 1.41, the IC50 [4] was 146 µM and the melting point was 70 °C.

In the case of `O=C1Nc2cc(Cl)ccc2[C@]12C[C@@H](S(=O)(=O)c1ccccc1)[C@H]1CCCN12` [Compound 4m], the “Antiviral Activities SARS-CoV-2 SI (selectivity index)” value [2] is reported as <1, the IC50 [2, 6] is reported as 305 µM and the CC50 ([3]; Cytotoxicity (CC50, µM)) is reported as 225 µM. The “Antiviral Activities MERS-CoV SI (selectivity index)” value [4] was 1.17 and the IC50 [4] was 191 µM.

With `O=C1Nc2cc(Cl)ccc2[C@]12C[C@@H](S(=O)(=O)c1ccccc1)[C@H]1CSCN12` [Compound 4n, (3R,7’R,7a’R)-6-Chloro-7’-(phenylsulfonyl)-1’,6’,7’,7a’-tetrahydro-3’H-spiro[indoline-3,5’-pyrrolo [1,2-c]thiazole]-2-one] the IC50 [2, 6] was 667 µM, the CC50 ([3]; Cytotoxicity (CC50, µM)) was 222 µM and the IC50 [4] was 15 µM.

For `CCC(CC)COC(=O)[C@H](C)N[P@](=O)(OC[C@H]1O[C@@](C#N)(c2ccc3c(N)ncnn23)[C@H](O)[C@@H]1O)Oc1ccccc1` [Remdesivir, reference compound], the “Antiviral Activities SARS-CoV-2 SI (selectivity index)” value [2] was 70.40, the IC50 [2, 6] was 6.72 µM and the IC50 [5] was 6.72 µM. The CC50 ([3]; Cytotoxicity (CC50, µM)) was 473 µM, the “Antiviral Activities MERS-CoV SI (selectivity index)” value [4] was 172.66 and the IC50 [4] was 2.74 µM.

In the case of `NC(=O)c1ncn([C@@H]2O[C@H](CO)[C@@H](O)[C@H]2O)n1` [Ribavirin], the IC50 [1] is listed as 70 µM.

In the case of `CC(C)c1nc(CN(C)C(=O)N[C@H](C(=O)N[C@@H](Cc2ccccc2)C[C@H](O)[C@H](Cc2ccccc2)NC(=O)OCc2cncs2)C(C)C)cs1` [Ritonavir], the IC50 [1] is listed as ≥ 100 µM.
